Experimental data published in US11202761B2, “Formulations for oral delivery of adsorbents in the gut” (Da Volterra, priority 2010, dated 2021).
Where two headings read alike, the source gives them in different places.

How the values were obtained:
[1] = Kinetics of ciprofloxacin adsorption by activated charcoal measured by microbiological assay; settings: ciprofloxacin 50 μg/ml, 150 μg/ml activated charcoal, pH 6.0
Method: The microbiological assay consists in measuring the biological activity of an antibiotic, i.e. its capacity to inhibit the growth of an indicator bacterial strain. […] 20 μl samples containing the antibiotic to be measured were spotted onto paper discs applied directly onto the surface of the agar plates. After 18 h incubation at 37° C., the diameters of the zones around the paper discs where bacterial growth had been inhibited by the presence of the antibiotic were measured.

[2] = 10:1 ratio of activated charcoal/irinotecan, 200 μg/mL, simulated ileal medium pH 7.5
Excerpt: Samples were centrifuged, filtered, and diluted ten-fold, prior to determination of the non-adsorbed concentration of irinotecan by measuring its absorbance at 368 nm using a spectrophotometer.

[3] = in vitro adsorption of various antibiotics onto activated charcoal; assay type: physicochemical; settings: PBS pH 6, 37° C.
Method: (15 ml polypropylene tube, slow rotation 20 rpm), • sampling at 0.5 h, 1 h and 2 h, • Residual antibiotic dosage (i.e., not adsorbed) was determined by UV/visible spectrophotometric analysis.

[4] = target: T1, topoisomerase I (Homo sapiens, UniProt P11387); settings: in vitro; cited from earlier work
T1 sequence (P11387 1-765): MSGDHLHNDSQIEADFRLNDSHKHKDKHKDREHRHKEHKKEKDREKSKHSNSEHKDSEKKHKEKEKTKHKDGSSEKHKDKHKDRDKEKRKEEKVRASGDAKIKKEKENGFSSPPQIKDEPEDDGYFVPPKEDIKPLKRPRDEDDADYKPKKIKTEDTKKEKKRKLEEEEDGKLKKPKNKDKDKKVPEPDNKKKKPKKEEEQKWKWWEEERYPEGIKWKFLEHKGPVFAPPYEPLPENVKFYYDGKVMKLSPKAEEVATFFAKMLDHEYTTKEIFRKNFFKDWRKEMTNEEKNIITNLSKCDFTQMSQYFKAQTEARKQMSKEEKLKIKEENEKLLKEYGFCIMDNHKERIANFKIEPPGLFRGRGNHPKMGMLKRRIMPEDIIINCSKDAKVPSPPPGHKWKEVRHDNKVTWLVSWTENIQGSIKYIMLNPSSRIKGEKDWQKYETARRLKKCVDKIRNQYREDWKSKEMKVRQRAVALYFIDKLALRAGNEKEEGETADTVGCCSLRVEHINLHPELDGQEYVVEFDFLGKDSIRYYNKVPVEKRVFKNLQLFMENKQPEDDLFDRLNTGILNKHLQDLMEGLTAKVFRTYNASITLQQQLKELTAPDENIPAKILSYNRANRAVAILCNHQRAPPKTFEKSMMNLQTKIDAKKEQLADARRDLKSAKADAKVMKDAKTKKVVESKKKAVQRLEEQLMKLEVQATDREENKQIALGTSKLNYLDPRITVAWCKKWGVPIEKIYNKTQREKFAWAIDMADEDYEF

[5] = In vitro adsorption kinetics of SN-38 onto activated charcoal; assay type: physicochemical; settings: activated charcoal/SN-38 ratio of 10:1, 50 μg/mL in 0.01 M NaOH pH 12
Method: SN-38 was dissolved at a concentration of 50 μg/mL in 0.01 M NaOH pH 12. Non adsorbed SN-38 was detected after centrifugation and filtration by at its absorbance at 411 nm using a spectrophotometer.

[6] = start 3/1, extra charcoal: 6/1 after 1 h and 9/1 after 2 h
[7] = start 10/1, extra charcoal: 20/1 after 1 h and 30/1 after 2 h

O=C(O)c1cn(C2CC2)c2cc(N3CCNCC3)c(F)cc2c1=O [Ciprofloxacine]
antibiotic adsorbed by the charcoal ([1]; time zero sample = approximately one minute of contact): ~70%
antibiotic adsorbed onto the charcoal ([1]; within one hour): Almost all of the antibiotic was adsorbed

CCc1c2c(nc3ccc(OC(=O)N4CCC(N5CCCCC5)CC4)cc13)-c1cc3c(c(=O)n1C2)COC(=O)[C@]3(O)CC [irinotecan, Irinotecan]
time to complete adsorption [2]: about 15 minutes

CN(C)c1cc(NC(=O)CNC(C)(C)C)c(O)c2c1C[C@H]1C[C@H]3[C@H](N(C)C)C(O)=C(C(N)=O)C(=O)[C@@]3(O)C(O)=C1C2=O [Tigecycline]
Residual antibiotic after 2 h (*) [3, 6]: 21%

CN[C@H](CC(C)C)C(=O)N[C@H]1C(=O)N[C@@H](CC(N)=O)C(=O)N[C@H]2C(=O)N[C@H]3C(=O)N[C@H](C(=O)N[C@H](C(=O)O)c4cc(O)cc(O)c4-c4cc3ccc4O)[C@H](O)c3ccc(c(Cl)c3)Oc3cc2cc(c3O[C@@H]2O[C@H](CO)[C@@H](O)[C@H](O)[C@H]2O[C@H]2C[C@](C)(N)[C@H](O)[C@H](C)O2)Oc2ccc(cc2Cl)[C@H]1O [Vancomycin]
Residual antibiotic after 2 h (*) [3, 6]: 27%
Residual antibiotic after 2 h (*) [3, 7]: <1.25%

C[C@]1(Cn2ccnn2)[C@H](C(=O)O)N2C(=O)C[C@H]2S1(=O)=O [Tazobactam]
Residual antibiotic after 2 h (*) [3, 6]: <20%

CCc1c2c(nc3ccc(O)cc13)-c1cc3c(c(=O)n1C2)COC(=O)[C@]3(O)CC [SN-38, 7-ethyl-10-hydroxycamptothecin]
antineoplastic activity relative to the prodrug form (Irinotecan) [4]: 1000 fold
time to complete adsorption [5]: ~30 min

CC[C@H]1OC(=O)C[C@@H](O)[C@H](C)[C@@H](O[C@@H]2O[C@H](C)[C@@H](O[C@H]3C[C@@](C)(O)[C@@H](O)[C@H](C)O3)[C@H](N(C)C)[C@H]2O)[C@@H](CC=O)C[C@@H](C)C(=O)/C=C/C(C)=C/[C@@H]1CO[C@@H]1O[C@H](C)[C@@H](O)[C@@H](OC)[C@H]1OC [Tylosine]
Residual antibiotic after 2 h (*) [3, 6]: <3%
Residual antibiotic after 2 h (*) [3, 7]: <3%

O=C(O)[C@H]1/C(=C/CO)O[C@@H]2CC(=O)N21 [Clavulanate]
Residual antibiotic after 2 h (*) [3, 6]: 22%
Residual antibiotic after 2 h (*) [3, 7]: 3.5%
